Test results published in patent US12491185B2, “Inhibitors of mPTP” (NRG Therapeutics Ltd, priority 2023, dated 2025).

What follows are compounds tested on mPTP (assay: mPTP activity (Ca2+ retention) assay in isolated rat liver mitochondria). Details: examples tested by different contract research organisations, believed comparable.
Type: biochemical
Description: Pharmacological inhibition or modulation of the mPTP can be measured in well characterised ‘Ca^2+ retention’ assays performed in isolated mitochondria. In vitro, isolated mitochondria rapidly sequester exogenous Ca^2+ until the intramitochondrial Ca^2+ concentration reaches the threshold for mPTP activation. Once the pore is activated, mitochondrial integrity is compromised and the stored Ca^2+ is released. The distribution of Ca^2+ between extra- and intra-mitochondrial compartments can be measured in real time with the use of membrane-impermeant Ca^2+ sensitive fluorescent dyes. Depending on the configuration of the assay, inhibition or modulation of the mPTP either delays the opening of the pore or increases the concentration of Ca^2+ required to induce mPTP opening.
MPTP activity was measured in mitochondria freshly isolated from female Sprague Dawley (250 to 300 gram) rat livers using the following method. Cervical dislocation was performed on the rat. The liver was then perfused in-situ with −40 ml cold Dulbecco's Phosphate Buffered Saline (DPBS) prior to dissection and transferred into 30 ml Isolation Buffer (250 mM Sucrose, 10 mM KCl, 1 mM EGTA, 1 mM EDTA, 25 mM HEPES, adjusted to pH 7.5 with 1M NaOH). Each lobe of the liver was then removed from the buffer, minced using tweezers and a scalpel into −5 mm pieces then transferred into a 50 ml Potterton dounce homogenization tube on ice containing 30 ml ice-cold centrifugation buffer (300 mM Trehalose, 25 mM HEPES, 1 mM EGTA, 1 mM EDTA, 10 mM KCl, adjusted to pH 7.5 with 1M NaOH and supplemented with 0.1% bovine serum albumin (BSA) and complete protease inhibitor cocktail (one tablet of inhibitor per 50 mls of buffer). Homogenisation was carried out using a teflon pestle at 1800 rpm. The slurry was centrifuged at 800 g for 10 min at 4° C., then the supernatant centrifuged at 10,000 g for 10 min. The pellet was washed once with FLIPR assay buffer (75 mM Mannitol, 25 mM Sucrose, 5 mM Potassium Phosphate Monobasic, 20 mM Tris base, 100 mM KCl, 0.1% BSA adjusted to pH 7.4 with 5M HCl) centrifuged again, then resuspended in FLIPR assay buffer to a concentration of 8.8 mg/ml protein.
Tested compounds (10 mM stock in DMSO) were serially diluted in DMSO in half log steps to generate 10 test concentrations (final concentrations in assay 30 μM to 1 nM). An intermediate dilution of 5 μl DMSO samples into 247 μl FLIPR assay buffer was carried out prior to transfer of 5 μl into duplicate wells of a 384 well polypropylene assay plate. Control wells were 0.5% (v/v) DMSO and 5 μM cyclosporin A.
A stock mitochondria/Fluo5N assay solution was prepared in 5.6 ml FLIPR assay buffer (at RT) supplemented with succinate disodium salt (10 mM), rotenone (1 μM), Fluo5N pentapotassium salt (2 μM) and 1 ml mitochondria suspension, then transferred (15 μl) into the assay plate containing test compounds and incubated for 10 min at RT. Assay plates were processed for fluorescence detection on either a FLIPR Tetra (Molecular Devices) or CLARIOstar (BMG) plate reader. For kinetic fluorescence detection on the FLIPR, dye fluorescence was measured every 3 sec for a total of 10 min. After 12 sec, a 2.5 μl bolus of CaCl2 (75 μM) was added from a source plate containing 675 μM CaCl2 in FLIPR assay buffer. Alternatively, the 2.5 μl addition of CaCl2 was performed using a Viaflow 384, plates were incubated at RT for 10 min, and dye fluorescence measured after 10 min on the CLARIOstar plate reader. pIC50 values for tested compounds were calculated using the fluorescence value collected at the 10 min timepoint on either plate reader, with % inhibition calculated using the DMSO control and cyclosporin A values as 0 and 100% respectively.

SMILES | mPTP Rat liver pIC50
CC[C@@H](Cc1ccc(F)cc1F)C(C)NC(=O)c1nn(C)c(=O)[nH]1 (stereo partly drawn) [Example 141, N-[(3S)-3-[(2,4-difluorophenyl)methyl]pentan-2-yl]-1-methyl-5-oxo-4H-1,2,4-triazole-3-carboxamide] | 6.44
O=C(NC[C@H](Cc1ccc(F)c(F)c1)C1CC1)c1cncc(=O)[nH]1 [Example 143] | 6.47
CCC(CNC(=O)c1nn(C)c(=O)[nH]1)Cc1ccc2cnccc2c1 (stereo not shown) [Example 144] | <4.57
O=C(NCC1(Cc2ccc(F)cc2F)CCC1)c1cnc(=O)[nH]c1 [Example 145] | <4.57
O=C(NC[C@H](Cc1ccc(F)cc1F)C1CC1)c1cnc(=O)[nH]c1 [Example 147] | <4.57
O=C(NCC1(Cc2cc(F)c(F)cc2F)CCC1)c1cncc(=O)[nH]1 [Example 148] | 6.58
O=C(NC[C@H](Cc1ccc(F)c(F)c1)C1CC1)c1cncc(=O)[nH]1 [Example 151] | 5.88
O=C(NC[C@H](Cc1ccc(F)cc1F)C1CC1)c1cncc(=O)[nH]1 [Example 154] | 5.54
O=C(NC[C@H](Cc1cc(F)ccc1F)C1CC1)c1ccc(=O)[nH]n1 [Example 155] | 5.33
O=C(NC[C@H](Cc1cc(F)ccc1F)C1CC1)c1cncc(=O)[nH]1 [Example 158] | 5.33
CCc1cccc(CC2(CNC(=O)c3nn(C)c(=O)[nH]3)CCC2)c1 [Example 162, N-((1-(3-ethylbenzyl)cyclobutyl)methyl)-1-methyl-5-oxo-4,5-dihydro-1H-1,2,4-triazole-3-carboxamide] | 5.26
CC[C@H](CNC(=O)c1nccc(=O)[nH]1)Cc1ccc(F)cc1F [Example 163] | 5.38
CCC(CNC(=O)c1nn(C)c(=O)[nH]1)Cc1ccc(F)c(F)c1 (stereo not shown) [Example 164] | 6.56
O=C(NCC1(Cc2cc(F)cc(F)c2)CCC1)c1cncc(=O)[nH]1 [Example 165] | <4.57
Cc1cc(F)ccc1CC1(CNC(=O)c2cncc(=O)[nH]2)CCC1 [Example 166] | 5.7
O=C(NCC1(Cc2cccc(F)c2)CCC1)c1cnn[nH]1 [Example 167] | <4.57
Cc1cc(F)ccc1CC1(CNC(=O)c2nccc(=O)[nH]2)CCC1 [Example 168, N-((1-(4-fluoro-2-methylbenzyl)cyclobutyl)methyl)-6-oxo-1,6-dihydropyrimidine-2-carboxamide] | 6.07
CCC(Cc1ccc(F)cc1F)CN(C)C(=O)c1nccc(=O)[nH]1 (stereo not shown) [Example 169] | <4.57
O=C(NCC1(Cc2ccc(F)cc2F)CCC1)c1cnn[nH]1 [Example 170] | 5.65
O=C(NCC1(Cc2cccc(F)c2)CCC1)c1nnc[nH]1 [Example 171] | 4.87
CCC(CNC(=O)c1nn(C)c(=O)[nH]1)Cc1ccc2c(c1)CCO2 (stereo not shown) [Example 172] | 5.41
Cn1c(C(=O)NCC2(Cc3ccc(F)cc3F)CCC2)n[nH]c1=O [Example 173, N-((1-(2,4-difluorobenzyl)cyclobutyl)methyl)-4-methyl-5-oxo-4,5-dihydro-1H-1,2,4-triazole-3-carboxamide] | <4.57
O=C(NCC1(Cc2cc(F)cc(F)c2)CCC1)c1ccc(=O)[nH]n1 [Example 176] | 4.8

SMILES | mPTP Rat liver pIC50
COCc1ccccc1CC1(CNC(=O)c2nn(C)c(=O)[nH]2)CCC1 [Example 178] | <4.57
CCC(Cc1ccc(F)cc1F)CN(C)C(=O)c1nn(C)c(=O)[nH]1 (stereo not shown) [Example 179, N-(2-(2,4-difluorobenzyl)butyl)-N,1-dimethyl-5-oxo-4,5-dihydro-1H-1,2,4-triazole-3-carboxamide] | <4.57
O=C(NCC1(Cc2ccc(F)cc2F)CCC1)c1nnc[nH]1 [Example 180] | 5.14
CSc1cccc(CC2(CNC(=O)c3nn(C)c(=O)[nH]3)CCC2)c1 [Example 182] | 5.02
O=C(NC[C@H](Cc1c(F)cc(F)cc1F)C1CC1)c1nccc(=O)[nH]1 [Example 183, (R)—N-(2-cyclopropyl-3-(2,4,6-trifluorophenyl)propyl)-6-oxo-1,6-dihydropyrimidine-2-carboxamide] | 5.4
O=C(NCC1(Cc2ccc(F)cc2F)CCOCC1)c1cc(=O)[nH]o1 [Example 184] | 6.14
O=C(NCC1(Cc2ccc(F)cc2F)CCOCC1)c1nccc(=O)[nH]1 [Example 185] | 6.34
O=C(NCC1(Cc2ccc(F)cc2F)CC12CC2)c1nccc(=O)[nH]1 (stereo not shown) [Example 186] | 6.58
CC(CNC(=O)c1nccc(=O)[nH]1)(Cc1ccc(F)cc1F)C1CC1 (stereo not shown) [Example 187] | 6.53
CC(c1ccc(F)cc1F)[C@@H](CNC(=O)c1nccc(=O)[nH]1)C1CC1 (stereo partly drawn) [Example 188, N-[(2S)-2-Cyclopropyl-3-(2,4-difluorophenyl)butyl]-4-oxo-3H-pyrimidine-2-carboxamide] | 5.42
O=C(NC[C@H](Cc1c(F)cccc1F)C1CC1)c1nccc(=O)[nH]1 [Example 189] | 5.26
O=C(NC[C@H](Cc1ccc(F)cc1F)C1CC1)c1ncc(F)c(=O)[nH]1 [Example 192] | 5.72
Cn1nc(C(=O)NCC(Cc2ccc(F)cc2Cl)C2CC2)[nH]c1=O (stereo not shown) [Example 193, N-(3-(2-chloro-4-fluorophenyl)-2-cyclopropylpropyl)-1-methyl-5-oxo-4,5-dihydro-1H-1,2,4-triazole-3-carboxamide] | 6.36
CC(NC(=O)c1nn(C)c(=O)[nH]1)[C@H](Cc1ccc(F)cc1F)C1CC1 (stereo partly shown) [Example 196] | 6.56
Cn1nc(C(=O)NCC2(Cc3ccc(F)cc3F)CCC(F)(F)CC2)[nH]c1=O [Example 197] | <4.57
O=C(NCC1(Cc2ccc(F)cc2F)CCC1)c1nncc(=O)[nH]1 [Example 198, N-((1-(2,4-difluorobenzyl)cyclobutyl)methyl)-5-oxo-4,5-dihydro-1,2,4-triazine-3-carboxamide] | 5.95
CCC(CC)(CNC(=O)c1nn(C)c(=O)[nH]1)Cc1ccc(F)cc1F [Example 199] | 6.55
Cc1cc(=O)[nH]c(C(=O)NCC2(Cc3ccc(F)cc3F)CCC2)n1 [Example 200] | <4.57
O=C(NCC1(Cc2ccc(F)cc2F)CCC1)c1cc(=O)[nH]s1 [Example 201] | <4.57
O=C(NCC1(Cc2ccc(F)c(F)c2)CCC1)c1noc(=O)[nH]1 [Example 202, N-((1-(3,4-difluorobenzyl)cyclobutyl)methyl)-5-oxo-4,5-dihydro-1,2,4-oxadiazole-3-carboxamide] | 5.61
O=C(NC[C@H](Cc1ccc(F)cc1F)C1CC1)c1noc(=O)[nH]1 [Example 204] | 6.53
COCc1nnc(C(=O)NCC2(Cc3ccc(F)cc3F)CCC2)[nH]1 [Example 206] | 5.24
Cn1nc(C(=O)NCC2(Cc3ccc(F)cc3F)CCC2)nc1CO [Example 208] | <4.57
